In test [1] the target is PIM1 (human) (UniProt P11309). Kind of test: SelectScreen, TR FRET.
The target of test [2] is PIM2 (human) (UniProt Q9P1W9). Kind of test: SelectScreen, TR FRET.
The target in another test is DCLK1 (human) (UniProt O15075). Kind of test: KINOMEscan competition binding. Conditions: compound 10.0 µM.
For the next test, the target named is TTK (human) (UniProt P33981). Kind of test: KINOMEscan competition binding. Conditions: compound 10.0 µM.
For a further test, the target named is MYLK (human) (UniProt Q15746). Kind of test: KINOMEscan competition binding. As to conditions: compound 10.0 µM.
A further test has as its target RPS6KA6 KD2 (human) (UniProt Q9UK32). Kind of test: KINOMEscan competition binding. Conditions: compound 10.0 µM.
The target in a further test is RPS6KA1 KD2 (human) (UniProt Q15418). Kind of test: KINOMEscan competition binding. Conditions: compound 10.0 µM.
The target of another test is RPS6KA2 KD2 (human) (UniProt Q15349). Kind of test: KINOMEscan competition binding. Conditions: compound 10.0 µM.
For another test, the target named is PIM3 (human) (UniProt Q86V86). Kind of test: KINOMEscan competition binding. As to conditions: compound 10.0 µM.
Test [3] has as its target PIM1 (human) (UniProt P11309). Kind of test: KINOMEscan competition binding. Conditions: compound 10.0 µM.
In another test the target is MAP2K3 (human) (UniProt P46734). Kind of test: KINOMEscan competition binding. As to conditions: compound 10.0 µM.
Test [4] concerns the target PIM2 (human) (UniProt Q9P1W9). Kind of test: KINOMEscan competition binding. Conditions: compound 10.0 µM.
Another test has as its target TAOK1 (human) (UniProt Q7L7X3). Kind of test: KINOMEscan competition binding. As to conditions: compound 10.0 µM.
The target in a further test is CDK16 (human) (UniProt Q00536). Kind of test: KINOMEscan competition binding. As to conditions: compound 10.0 µM.
Test [5] deals with EGFR (human), P00533 [G719S]. Kind of test: KINOMEscan competition binding. Conditions: compound 10.0 µM.
A further test deals with MAPK15 (human) (UniProt Q8TD08). Kind of test: KINOMEscan competition binding. Conditions: compound 10.0 µM.
Another test concerns the target HIPK1 (human) (UniProt Q86Z02). Kind of test: KINOMEscan competition binding. Conditions: compound 10.0 µM.
Test [6] deals with TYK2 JH2 pseudokinase (human) (UniProt P29597). Kind of test: KINOMEscan competition binding. Conditions: compound 10.0 µM.
The target in a further test is STK17B (human) (UniProt O94768). Kind of test: KINOMEscan competition binding. As to conditions: compound 10.0 µM.
In another test the target is DAPK1 (human) (UniProt P53355). Kind of test: KINOMEscan competition binding. Conditions: compound 10.0 µM.
For the next test, the target named is CSNK2A2 (human) (UniProt P19784). Kind of test: KINOMEscan competition binding. Conditions: compound 10.0 µM.
Another test deals with GAK (human) (UniProt O14976). Kind of test: KINOMEscan competition binding. As to conditions: compound 10.0 µM.
The target in another test is PIK3CG (human) (UniProt P48736). Kind of test: KINOMEscan competition binding. Conditions: compound 10.0 µM.
A further test concerns the target STK17A (human) (UniProt Q9UEE5). Kind of test: KINOMEscan competition binding. As to conditions: compound 10.0 µM.
For a further test, the target named is ULK2 (human) (UniProt Q8IYT8). Kind of test: KINOMEscan competition binding. Conditions: compound 10.0 µM.
The target in another test is ACVR2B (human) (UniProt Q13705). Kind of test: KINOMEscan competition binding. As to conditions: compound 10.0 µM.
In a further test the target is CLK1 (human) (UniProt P49759). Kind of test: KINOMEscan competition binding. Conditions: compound 10.0 µM.
The next test concerns the target DAPK2 (human) (UniProt Q9UIK4). Kind of test: KINOMEscan competition binding. As to conditions: compound 10.0 µM.
The next test has as its target GSK3A (human) (UniProt P49840). Kind of test: KINOMEscan competition binding. Conditions: compound 10.0 µM.
The next test concerns the target CLK4 (human) (UniProt Q9HAZ1). Kind of test: KINOMEscan competition binding. As to conditions: compound 10.0 µM.
The next test concerns the target TGFBR2 (human) (UniProt P37173). Kind of test: KINOMEscan competition binding. Conditions: compound 10.0 µM.
In the next test the target is PLK4 (human) (UniProt O00444). Kind of test: KINOMEscan competition binding. As to conditions: compound 10.0 µM.
The next test deals with PLK1 (human) (UniProt P53350). Kind of test: KINOMEscan competition binding. Conditions: compound 10.0 µM.
The next test concerns the target MAPK7 (human) (UniProt Q13164). Kind of test: KINOMEscan competition binding. As to conditions: compound 10.0 µM.
The target of the next test is FLT3 (human) (UniProt P36888). Kind of test: KINOMEscan competition binding. As to conditions: compound 10.0 µM.
A further test deals with PLK3 (human) (UniProt Q9H4B4). Kind of test: KINOMEscan competition binding. As to conditions: compound 10.0 µM.
Another test concerns the target PTK2 (human) (UniProt Q05397). Kind of test: KINOMEscan competition binding. Conditions: compound 10.0 µM.
The target in a further test is STK33 (human) (UniProt Q9BYT3). Kind of test: KINOMEscan competition binding. As to conditions: compound 10.0 µM.
A further test deals with RPS6KA4 KD2 (human) (UniProt O75676). Kind of test: KINOMEscan competition binding. As to conditions: compound 10.0 µM.
The target in another test is CHUK (human) (UniProt O15111). Kind of test: KINOMEscan competition binding. As to conditions: compound 10.0 µM.

The source of these data is the kinase profiling compilation of Christmann-Franck et al. (2016).

Molecules are shown by their SMILES. Where only a bound is given, the exact number is not on record here.

Chain of HIPK1 (human) (Q86Z02 whole entry, looked up): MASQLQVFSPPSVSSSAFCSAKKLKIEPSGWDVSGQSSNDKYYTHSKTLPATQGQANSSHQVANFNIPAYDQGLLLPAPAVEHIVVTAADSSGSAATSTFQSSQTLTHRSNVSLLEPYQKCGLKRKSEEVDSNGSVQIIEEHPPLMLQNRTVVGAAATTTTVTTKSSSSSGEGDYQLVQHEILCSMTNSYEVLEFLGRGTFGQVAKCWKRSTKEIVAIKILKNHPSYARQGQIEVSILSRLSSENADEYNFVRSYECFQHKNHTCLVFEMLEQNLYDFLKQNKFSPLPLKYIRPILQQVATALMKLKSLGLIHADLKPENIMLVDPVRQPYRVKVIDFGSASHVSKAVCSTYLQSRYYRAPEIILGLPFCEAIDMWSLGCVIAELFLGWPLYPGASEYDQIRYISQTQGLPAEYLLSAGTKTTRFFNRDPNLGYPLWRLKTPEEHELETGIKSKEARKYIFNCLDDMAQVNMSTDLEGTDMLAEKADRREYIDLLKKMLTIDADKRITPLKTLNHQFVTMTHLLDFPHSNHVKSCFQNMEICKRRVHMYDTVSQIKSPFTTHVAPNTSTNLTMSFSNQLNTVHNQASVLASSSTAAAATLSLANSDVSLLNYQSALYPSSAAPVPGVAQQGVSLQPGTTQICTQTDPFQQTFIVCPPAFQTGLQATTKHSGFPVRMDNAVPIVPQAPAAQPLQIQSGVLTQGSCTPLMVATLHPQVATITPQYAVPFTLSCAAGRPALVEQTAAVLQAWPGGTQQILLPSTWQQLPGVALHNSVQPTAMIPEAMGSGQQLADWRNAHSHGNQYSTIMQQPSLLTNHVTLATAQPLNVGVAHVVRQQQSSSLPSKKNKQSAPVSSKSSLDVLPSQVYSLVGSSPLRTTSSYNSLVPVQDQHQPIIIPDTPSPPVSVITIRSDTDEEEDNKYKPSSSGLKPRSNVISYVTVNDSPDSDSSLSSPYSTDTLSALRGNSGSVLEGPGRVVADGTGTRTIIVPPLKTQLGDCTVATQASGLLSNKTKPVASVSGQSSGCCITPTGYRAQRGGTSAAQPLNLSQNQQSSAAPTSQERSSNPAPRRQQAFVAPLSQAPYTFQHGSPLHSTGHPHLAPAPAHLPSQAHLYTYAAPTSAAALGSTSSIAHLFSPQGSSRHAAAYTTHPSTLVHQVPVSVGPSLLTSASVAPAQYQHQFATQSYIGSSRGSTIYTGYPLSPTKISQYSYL
Chain of STK17A (human) (Q9UEE5 whole entry, looked up): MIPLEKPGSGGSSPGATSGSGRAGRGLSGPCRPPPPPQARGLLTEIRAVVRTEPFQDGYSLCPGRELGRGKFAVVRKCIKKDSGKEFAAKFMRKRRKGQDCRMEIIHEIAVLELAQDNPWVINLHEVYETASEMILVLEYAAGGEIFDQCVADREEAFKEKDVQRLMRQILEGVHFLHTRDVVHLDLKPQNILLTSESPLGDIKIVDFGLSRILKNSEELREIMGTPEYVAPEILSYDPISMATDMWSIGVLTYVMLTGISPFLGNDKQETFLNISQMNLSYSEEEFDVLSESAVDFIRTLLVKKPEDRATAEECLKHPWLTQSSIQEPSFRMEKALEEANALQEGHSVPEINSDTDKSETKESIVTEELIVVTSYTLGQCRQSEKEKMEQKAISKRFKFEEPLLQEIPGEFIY
Chain of TTK (human) (P33981 whole entry, looked up): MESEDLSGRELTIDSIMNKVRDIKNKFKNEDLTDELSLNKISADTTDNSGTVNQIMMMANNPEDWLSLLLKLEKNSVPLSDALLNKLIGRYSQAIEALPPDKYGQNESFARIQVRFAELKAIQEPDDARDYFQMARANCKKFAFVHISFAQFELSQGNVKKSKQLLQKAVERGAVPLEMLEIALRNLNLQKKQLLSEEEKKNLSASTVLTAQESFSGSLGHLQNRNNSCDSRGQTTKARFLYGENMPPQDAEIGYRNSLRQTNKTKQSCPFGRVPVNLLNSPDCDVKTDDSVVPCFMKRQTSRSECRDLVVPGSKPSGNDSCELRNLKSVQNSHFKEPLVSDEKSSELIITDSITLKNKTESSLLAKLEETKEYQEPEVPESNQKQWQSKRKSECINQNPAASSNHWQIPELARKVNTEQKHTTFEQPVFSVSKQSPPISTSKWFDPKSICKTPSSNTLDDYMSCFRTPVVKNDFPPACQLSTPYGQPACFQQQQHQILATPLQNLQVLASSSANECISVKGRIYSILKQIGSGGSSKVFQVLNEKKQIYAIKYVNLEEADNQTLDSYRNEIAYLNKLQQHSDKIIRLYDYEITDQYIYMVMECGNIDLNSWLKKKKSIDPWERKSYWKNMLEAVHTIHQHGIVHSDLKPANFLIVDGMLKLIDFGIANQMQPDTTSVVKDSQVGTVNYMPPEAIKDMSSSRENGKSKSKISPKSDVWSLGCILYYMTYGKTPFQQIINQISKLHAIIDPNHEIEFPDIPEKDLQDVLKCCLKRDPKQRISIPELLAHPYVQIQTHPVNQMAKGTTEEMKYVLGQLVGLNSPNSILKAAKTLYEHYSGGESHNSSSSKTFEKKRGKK
Chain of STK17B (human) (O94768 whole entry, looked up): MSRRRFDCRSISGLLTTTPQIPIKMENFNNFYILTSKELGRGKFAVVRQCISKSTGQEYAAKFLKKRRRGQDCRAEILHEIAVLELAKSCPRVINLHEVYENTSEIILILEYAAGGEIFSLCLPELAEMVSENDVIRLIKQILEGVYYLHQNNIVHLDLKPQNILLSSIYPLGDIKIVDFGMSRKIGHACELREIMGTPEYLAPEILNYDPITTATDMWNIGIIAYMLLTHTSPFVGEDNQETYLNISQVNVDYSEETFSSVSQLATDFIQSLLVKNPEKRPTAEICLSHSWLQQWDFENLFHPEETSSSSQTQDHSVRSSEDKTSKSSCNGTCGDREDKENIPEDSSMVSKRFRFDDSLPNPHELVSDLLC
Chain of PIM1 (human) (P11309 whole entry, looked up): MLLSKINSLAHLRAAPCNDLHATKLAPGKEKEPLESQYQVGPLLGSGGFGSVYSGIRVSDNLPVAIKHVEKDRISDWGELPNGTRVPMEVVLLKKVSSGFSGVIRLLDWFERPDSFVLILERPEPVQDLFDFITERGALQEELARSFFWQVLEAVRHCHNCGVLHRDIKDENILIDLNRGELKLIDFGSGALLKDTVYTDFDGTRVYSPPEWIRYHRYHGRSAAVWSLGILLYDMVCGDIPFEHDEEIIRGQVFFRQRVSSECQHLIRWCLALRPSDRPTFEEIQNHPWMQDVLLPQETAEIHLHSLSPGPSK
Chain of PLK1 (human) (P53350 whole entry, looked up): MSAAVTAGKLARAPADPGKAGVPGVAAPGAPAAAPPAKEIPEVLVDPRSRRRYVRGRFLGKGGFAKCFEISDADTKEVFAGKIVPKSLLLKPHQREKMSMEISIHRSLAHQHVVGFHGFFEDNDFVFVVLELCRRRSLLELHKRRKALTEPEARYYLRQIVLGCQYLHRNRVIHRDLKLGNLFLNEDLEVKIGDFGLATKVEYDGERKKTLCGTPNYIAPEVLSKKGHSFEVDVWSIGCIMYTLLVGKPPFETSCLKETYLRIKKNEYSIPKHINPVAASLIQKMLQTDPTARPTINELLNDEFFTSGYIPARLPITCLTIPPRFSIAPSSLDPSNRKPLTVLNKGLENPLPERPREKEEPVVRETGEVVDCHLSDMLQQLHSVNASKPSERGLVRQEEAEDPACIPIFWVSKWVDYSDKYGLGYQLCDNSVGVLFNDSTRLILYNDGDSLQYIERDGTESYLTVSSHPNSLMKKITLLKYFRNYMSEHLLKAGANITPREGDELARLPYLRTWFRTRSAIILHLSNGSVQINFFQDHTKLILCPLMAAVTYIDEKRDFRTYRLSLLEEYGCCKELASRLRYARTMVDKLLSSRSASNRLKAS
Chain of MAP2K3 (human) (P46734 whole entry, looked up): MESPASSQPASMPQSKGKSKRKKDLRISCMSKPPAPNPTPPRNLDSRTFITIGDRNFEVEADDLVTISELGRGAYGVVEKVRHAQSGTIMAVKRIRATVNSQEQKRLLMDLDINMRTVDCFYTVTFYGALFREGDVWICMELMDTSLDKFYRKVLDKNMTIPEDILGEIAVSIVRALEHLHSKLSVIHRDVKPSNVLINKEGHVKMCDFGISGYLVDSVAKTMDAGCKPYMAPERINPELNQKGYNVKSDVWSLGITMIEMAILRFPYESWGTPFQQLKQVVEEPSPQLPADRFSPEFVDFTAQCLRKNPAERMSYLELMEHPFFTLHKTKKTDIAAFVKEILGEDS
Chain of CDK16 (human) (Q00536 whole entry, looked up): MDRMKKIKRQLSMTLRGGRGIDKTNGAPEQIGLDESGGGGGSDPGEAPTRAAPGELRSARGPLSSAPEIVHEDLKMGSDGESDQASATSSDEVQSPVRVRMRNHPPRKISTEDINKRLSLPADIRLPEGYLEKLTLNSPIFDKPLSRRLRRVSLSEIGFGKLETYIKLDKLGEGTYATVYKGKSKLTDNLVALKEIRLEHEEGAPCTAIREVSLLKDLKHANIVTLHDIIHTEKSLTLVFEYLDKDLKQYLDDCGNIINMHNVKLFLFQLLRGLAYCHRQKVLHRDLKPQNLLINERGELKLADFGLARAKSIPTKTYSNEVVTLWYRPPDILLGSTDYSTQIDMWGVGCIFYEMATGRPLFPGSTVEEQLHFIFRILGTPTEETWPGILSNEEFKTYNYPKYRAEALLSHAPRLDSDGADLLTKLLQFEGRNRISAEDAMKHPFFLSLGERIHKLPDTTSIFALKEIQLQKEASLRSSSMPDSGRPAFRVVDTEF

For the compound `N=C1NC(=O)/C(=C/c2ccc(-c3cccc4ccccc34)o2)S1`, the IC50 turned out to be 2170 nM at PIM1 (human) [1] and 1200 nM against PIM2 (human) [2].

As to `CC(C)Oc1cc(N2CCC(N(C)C)CC2)ccc1Nc1ncc2c(n1)N1CCC[C@H]1CC(=O)N2C`, the kinase still bound, per cent of control on DCLK1 (human) worked out at 7.4%; on TTK (human) it was 12%; at MYLK (human), 26%; at RPS6KA6 KD2 (human), 24%; at RPS6KA1 KD2 (human), 34%; on RPS6KA2 KD2 (human), 9.4%.

On to `CS(=O)(=O)Nc1ccc(-c2cccc(/C=C3\SC(=N)NC3=O)n2)cc1`, for which the kinase still bound, per cent of control was 13% at PIM3 (human); 23% on PIM1 (human) [3]; 21% on MAP2K3 (human); 9.2% at PIM2 (human) [4]; 26% on TAOK1 (human); 10% at CDK16 (human). Further, the kinase still bound, per cent of control came out at 16% in test [5], 22% on MAPK15 (human) and 0.4% on HIPK1 (human).

For `O=C1NC(=O)/C(=C/c2ccc(-c3ccc(C(=O)Nc4ccc(N5CCNCC5)cc4)cc3)o2)S1`, the results for the half-inhibitory concentration (IC50) on PIM1 (human) [1] and on PIM2 (human) [2] were 246 nM and 133 nM, respectively. The kinase still bound, per cent of control at PIM3 (human) came out at 1.2%; in test [6], 14%; on PIM1 (human) [3] it was 1.4%; on MYLK (human), 27%; at STK17B (human), 0.65%; at PIM2 (human) [4], 0.75%. For the same compound, the kinase still bound, per cent of control was 34% at DAPK1 (human); 21% on CSNK2A2 (human); 26% at GAK (human); 1.1% at HIPK1 (human); 17% at PIK3CG (human); 20% on STK17A (human).

Turning to `CN1C(=N)NC(=O)/C1=C/c1ccc(-c2ccc(S(N)(=O)=O)cc2)o1`, the kinase still bound, per cent of control at PIM3 (human) was found to be 7.4%; on PIM1 (human) [3], 21%; at MAP2K3 (human) it was 11%.

Turning to `N=C1NC(=O)/C(=C/c2ccc(-c3ccc(C(=O)Nc4ccc(N5CCNCC5)cc4)cc3)o2)S1`, the half-maximal inhibitory concentration (IC50) at PIM1 (human) [1] turned out to be 151 nM; against PIM2 (human) [2], 214 nM.

In the case of `NS(=O)(=O)c1ccc(-c2ccc(C=C3C(=O)c4ccccc4C3=O)o2)cc1`, the kinase still bound, per cent of control on ULK2 (human) is 22%.

For the compound `Cc1cn(-c2cc(NC(=O)c3cccc4cc(-c5ccc(/C=C6\SC(=O)NC6=O)o5)ccc34)cc(C(F)(F)F)c2)cn1`, the results for the half-maximal inhibitory concentration (IC50) against PIM1 (human) [1] and on PIM2 (human) [2] were 5630 nM and 1430 nM, respectively.

With `N=C1NC(=O)/C(=C/c2ccc(-c3ccc(Cl)cc3)o2)S1`, the IC50 on PIM1 (human) [1] is 895 nM; against PIM2 (human) [2], 7830 nM. Further, the kinase still bound, per cent of control amounted to 3.9% on PIM3 (human); 9.2% at PIM1 (human) [3]; 25% at ACVR2B (human); 5.6% on MAP2K3 (human); 34% at CLK1 (human); 2.1% at STK17B (human). Further, the kinase still bound, per cent of control was 1.4% at PIM2 (human) [4]; 33% at DAPK2 (human); 11% on TAOK1 (human); 7.8% on GSK3A (human); 30% on CLK4 (human); 14% at CDK16 (human). For the same compound, the kinase still bound, per cent of control at TGFBR2 (human) turned out to be 10%; on MAPK15 (human), 1.4%; on HIPK1 (human) it was 0.2%; on STK17A (human) it was 1.8%.

Regarding `NS(=O)(=O)c1ccc(-c2ccc(/C=C3\SC(=S)NC3=O)o2)cc1`, the concentration for half-maximal inhibition (IC50) on PIM1 (human) [1] came to 305 nM; against PIM2 (human) [2], 177 nM. Also, the kinase still bound, per cent of control came to 14% at PLK4 (human); 2.2% on PIM3 (human); 1.8% at PIM1 (human) [3]; 10% at CDK16 (human); 22% on PIK3CG (human).

Turning to `CC(C)Oc1cc(C(=O)N2CCC(N3CCN(C)CC3)CC2)ccc1Nc1ncc2c(n1)N(C1CCCC1)[C@@H]1CCC[C@@H]1C(=O)N2C`, the kinase still bound, per cent of control worked out at 24% at PLK1 (human), 18% at MYLK (human) and 4.8% at MAPK7 (human).

On to `CCOc1cc(N2CCC(O)CC2)ccc1Nc1ncc2c(n1)N(C1CCCC1)CCC(=O)N2C`, for which the kinase still bound, per cent of control is 4.3% on PLK1 (human); 27% at PLK4 (human); 0% at FLT3 (human); 3.2% at TTK (human); 15% on PLK3 (human); 2% at GAK (human). The kinase still bound, per cent of control turned out to be 24% on PTK2 (human) and 32% at STK33 (human).

For the compound `CCN1CCN(Cc2cc(NC(=O)c3cccc4cc(-c5ccc(/C=C6\SC(=N)NC6=O)o5)ccc34)cc(C(F)(F)F)c2)CC1`, the IC50 against PIM1 (human) [1] is 774 nM; at PIM2 (human) [2], 814 nM.

Turning to `CC(C)Oc1cc(N2CCC(O)CC2)ccc1Nc1ncc2c(n1)N1CCC[C@H]1CC(=O)N2C`, the kinase still bound, per cent of control at PLK1 (human) is 21%; at TTK (human), 5%; on PLK3 (human), 16%; on RPS6KA4 KD2 (human), 32%.

As to `CN1C(=N)NC(=O)/C1=C/c1ccc(-c2cccc3ccccc23)o1`, the results for the IC50 against PIM1 (human) [1] and against PIM2 (human) [2] were above 10000 nM and 9210 nM, respectively. In addition, the kinase still bound, per cent of control on PIM3 (human) was determined as 9.6%; on PIM1 (human) [3], 27%; on STK17B (human), 32%; on PIM2 (human) [4], 2.6%; at GSK3A (human), 14%; on STK17A (human), 33%.

In the case of `NS(=O)(=O)c1ccc(-c2ccc(/C=C3\NC(=S)NC3=O)o2)cc1`, the kinase still bound, per cent of control on CHUK (human) turned out to be 32%.

Take `NC1=N/C(=C\c2ccc(-c3ccc(S(N)(=O)=O)cc3)o2)C(=O)N1`: the kinase still bound, per cent of control at PIM3 (human) came to 6%; at PIM1 (human) [3], 9.5%; on MAP2K3 (human) it was 13%; on RPS6KA4 KD2 (human), 14%.

For `CN1C(=N)NC(=O)/C1=C/c1ccc(-c2cncc3ccccc23)o1`, the IC50 on PIM1 (human) [1] was found to be 3560 nM; on PIM2 (human) [2] it was 3060 nM.

As for `O=C1NC(=S)S/C1=C\c1ccc(-c2csc3ccccc23)o1`, the half-maximal inhibitory concentration (IC50) against PIM1 (human) [1] was 722 nM; at PIM2 (human) [2], 375 nM.

`N=C1NC(=O)/C(=C/c2ccc(-c3ccc4c(C(=O)Nc5cccc(C(F)(F)F)c5)cccc4c3)o2)S1`: the IC50 against PIM1 (human) [1] is above 10000 nM; on PIM2 (human) [2], 3420 nM.
